One data set deals with T1, human GPR119 (Homo sapiens, UniProt Q8TDV5).
T1 construct: expressed in transfected cells; host or cells: HEK293 (transient transfection, Lipofectamine 2000)
T1 sequence (Q8TDV5 1-335): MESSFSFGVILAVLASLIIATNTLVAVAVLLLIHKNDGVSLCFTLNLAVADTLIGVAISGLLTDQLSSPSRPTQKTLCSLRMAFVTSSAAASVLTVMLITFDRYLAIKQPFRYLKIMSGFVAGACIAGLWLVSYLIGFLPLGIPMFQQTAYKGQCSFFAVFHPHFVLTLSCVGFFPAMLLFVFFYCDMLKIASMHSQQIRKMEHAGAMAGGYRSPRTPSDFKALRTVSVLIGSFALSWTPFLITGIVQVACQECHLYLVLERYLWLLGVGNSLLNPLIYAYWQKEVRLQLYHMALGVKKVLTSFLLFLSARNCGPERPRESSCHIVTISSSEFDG
Kind of data set: In vitro cyclic AMP assay (Cisbio HTRF) in HEK293 cells transfected with human GPR119. Type of data set: cell-based. Conditions: cAMP; for activation at 10 µM: 1 h, % Induction @ 10 μM; for EC50: Emax varies between 65 to 80%. The protocol:
A. In Vitro Cyclic AMP Assay:
cAMP measurements were done using a Cisbio dynamic 2 HTRF kit (Cisbio, Bedford, Mass.) according to the manufacturer's protocol. Briefly, HEK293 cells (0.2×10^6/well) were plated in a 24 well plate and incubated overnight at 37° C. Cells were transfected with either empty vector DNA or human GPR119 expression plasmid DNA using Lipofectamine 2000 (Invitrogen). After 24 h, transfected cells were harvested, counted and plated at 1000 cells/5 ul in a black 384 welled small volume plate. Cells were treated with desired concentrations of compounds and incubated for 60 min at room temperature. Lysis buffer containing cAMP-d2 and cryptate conjugate were added and incubated for 1 h. HRTF ratio was measured on a microplate reader (BMG Labtech., Germany) at an excitation wavelength of 337 nm and emission wavelengths of 665 and 620 nm with an integration time of 400 μsec. Data were analyzed using Graphpad Prism (Graphpad software; San Diego Calif.) for EC50 determination.
The results are as given in Table I as % Induction@ 10 μM, Table II as % Induction@ 10 μM and EC 50 in nM
A general note: Time-resolved FRET reads energy transfer from a long-lived donor to a nearby acceptor.

What is called melting point is the temperature, or range, at which the solid turns liquid. What is called EC50 is the concentration needed to bring the measured effect to its halfway point. A lower EC50 goes with an effect from little substance.

In turn, `CC(C)OC(=O)N1CCC(c2nc3ccc(-c4ccc(C(F)F)cc4)cc3o2)CC1` [EXAMPLE-33, Isopropyl 4-{6-[4-(difluoromethyl)phenyl]benzo[d]oxazol-2-yl}piperidine-1-carboxylate] returned a melting point of 149 to 153 °C. Further, the activation at 10 µM at human GPR119 (Table I) worked out at 10.6%.
In turn, `CC(C)OC(=O)N1CCC(c2nc3cc(-c4ccc(C(=O)O)cn4)ccc3o2)CC1` [EXAMPLE-34, 6-{2-[1-(isopropoxycarbonyl)piperidin-4-yl]benzo[d]oxazol-5-yl}nicotinic acid] gave a melting point of 239 to 242 °C.
Turning to `CS(=O)(=O)N1CCC(c2nc3cc(-c4ccc(-n5cnnn5)cc4F)ccc3o2)CC1` [EXAMPLE-35, 5-[2-fluoro-4-(1H-tetrazol-1-yl)phenyl]-2-[1-(methylsulfonyl)piperidin-4-yl]benzo[d]oxazole], the melting point fell in the range of 209 to 212 °C. On human GPR119 (Table I), the activation at 10 µM is 0.28%.
Take `CC(C)OC(=O)N1CCC(c2nc3cc(-c4ccc(C(N)=O)cn4)ccc3o2)CC1` [EXAMPLE-36, Isopropyl 4-[5-(5-carbamoylpyridin-2-yl)benzo[d]oxazol-2-yl]piperidine-1-carboxylate]: the melting point lay in the range of 227 to 230 °C. This compound yielded an activation at 10 µM at human GPR119 (Table I) of 4.83%.
With `CC(C)OC(=O)N1CCC(c2nc3cc(-c4ccc(C(N)=O)cc4F)ccc3o2)CC1` [EXAMPLE-37, Isopropyl 4-[5-(4-carbamoyl-2-fluorophenyl)benzo[d]oxazol-2-yl]piperidine-1-carboxylate], the melting point fell in the range of 194 to 197 °C. This compound also yielded an activation at 10 µM at human GPR119 (Table I) of 6.56%.
With `CC(C)OC(=O)N1CCC(c2nc3cc(-c4ccc(C(N)=O)cc4Cl)ccc3o2)CC1` [EXAMPLE-38, Isopropyl 4-[5-(4-carbamoyl-2-chlorophenyl)benzo[d]oxazol-2-yl]piperidine-1-carboxylate], the melting point lay within 178 to 182 °C. Also, the activation at 10 µM at human GPR119 (Table I) is 16.6%.
`CC(C)CC(=O)N1CCC(c2nc3cc(-c4ccc(C(N)=O)c(F)c4)ccc3o2)CC1` [EXAMPLE-39, 2-Fluoro-4-{2-[1-(3-methylbutanoyl)piperidin-4-yl]benzo[d]oxazol-5-yl}benzamide]: the melting point lay in the range of 186 to 190 °C. On human GPR119 (Table I), the activation at 10 µM turned out to be 27.5%.
In turn, `CC(C)CC(=O)N1CCC(c2nc3cc(-c4ccc(-n5cnnn5)cc4F)ccc3o2)CC1` [EXAMPLE-40, 1-{4-[5-(2-fluoro-4-(1H-tetrazol-1-yl)phenyl]benzo[d]oxazol-2-yl]piperidin-1-yl}-3-methylbutan-1-one] yielded a melting point of 168 to 172 °C. This compound displayed an activation at 10 µM at human GPR119 (Table I) of 21.9%.
On to `COCCN1CCC(c2nc3cc(-c4ccc(-n5cnnn5)cc4F)ccc3o2)CC1` [EXAMPLE-41, 5-[2-fluoro-4-(1H-tetrazol-1-yl)phenyl]-2-[1-(2-methoxyethyl)piperidin-4-yl]benzo[d]oxazole], for which the melting point fell in the range of 148 to 152 °C.
For the compound `CC(C)C(=O)N1CCC(c2nc3cc(-c4ccc(C(N)=O)c(F)c4)ccc3o2)CC1` [EXAMPLE-43, 2-Fluoro-4-[2-(1-isobutyrylpiperidin-4-yl)benzo[d]oxazol-5-yl]benzamide], the melting point fell in the range of 193 to 196 °C. For the same compound, the activation at 10 µM at human GPR119 (Table I) is 48.8%.
With `CC(C)OC(=O)N1CCC(c2nc3ccc(-c4ccc(C(N)=O)c(F)c4)cc3o2)CC1` [EXAMPLE-44, Isopropyl 4-[6-(4-carbamoyl-3-fluorophenyl)benzo[d]oxazol-2-yl]piperidine-1-carboxylate], the melting point was in the range of 178 to 181 °C. At human GPR119 (Table I), the activation at 10 µM turned out to be 64.8% and the half-maximal effective concentration (EC50) was in the range of 25 to 50 nM.
The compound `CC(C)OC(=O)N1CCC(c2nc3cc(-c4ccc(C(=O)NCCO)c(F)c4)ccc3o2)CC1` [EXAMPLE-45, Isopropyl 4-{5-[3-fluoro-4-(2-hydroxyethylcarbamoyl)phenyl]benzo[d]oxazol-2-yl}piperidine-1-carboxylate] gave a melting point of 145 to 147 °C. The compound further registered an activation at 10 µM at human GPR119 (Table I) of 56.4%.
For `CC(C)NC(=O)c1ccc(-c2ccc3oc(C4CCN(C(=O)OC(C)C)CC4)nc3c2)cc1F` [EXAMPLE-46, Isopropyl 4-{5-[3-fluoro-4-(isopropylcarbamoyl)phenyl]benzo[d]oxazol-2-yl}piperidine-1-carboxylate], in that order: 147 to 150 °C and 53%.
As for `CNS(=O)(=O)c1ccc(-c2ccc3oc(C4CCN(C(=O)OC(C)C)CC4)nc3c2)cc1` [EXAMPLE-47, Isopropyl 4-{5-[4-(N-methylsulfamoyl)phenyl]benzo[d]oxazol-2-yl}piperidine-1-carboxylate], the melting point fell in the range of 179 to 181 °C. The compound also displayed an activation at 10 µM on human GPR119 (Table I) of 33.1%.
The compound `CNC(=O)c1ccc(-c2ccc3oc(C4CCN(C(=O)OC(C)C)CC4)nc3c2)cn1` [EXAMPLE-48, Isopropyl 4-{5-[6-(methylcarbamoyl)pyridin-3-yl]benzo[d]oxazol-2-yl}piperidine-1-carboxylate] had a melting point of 158 to 161 °C. For the same compound, the activation at 10 µM on human GPR119 (Table I) is 26.7%.
`CNC(=O)c1ccc(-c2ccc3oc(C4CCN(C(=O)OC(C)C)CC4)nc3c2)cc1C` [EXAMPLE-49, Isopropyl 4-{5-[3-methyl-4-(methylcarbamoyl)phenyl]benzo[d]oxazol-2-yl}piperidine-1-carboxylate] returned a melting point of 151 to 154 °C. The compound further registered an activation at 10 µM on human GPR119 (Table I) of 32.9%.
For `CC(C)OC(=O)N1CCC(c2nc3cc(-c4ccc(C(=O)NC5CC5)c(F)c4)ccc3o2)CC1` [EXAMPLE-50, Isopropyl 4-{5-[4-(cyclopropylcarbamoyl)-3-fluorophenyl]benzo[d]oxazol-2-yl}piperidine-1-carboxylate], the melting point is 162 to 165 °C. On human GPR119 (Table I), this compound registered an activation at 10 µM of 38.7%.
As to `NC(=O)c1ccc(-c2ccc3oc(C4CCN(c5ncc(F)cn5)CC4)nc3c2)cc1F` [EXAMPLE-51, 2-Fluoro-4-{2-[1-(5-fluoropyrimidin-2-yl)piperidin-4-yl]benzo[d]oxazol-5-yl}benzamide], the melting point fell in the range of 226 to 229 °C. The activation at 10 µM at human GPR119 (Table I) turned out to be 38.7%.
Compound `CC(C)COC(=O)N1CCC(c2ccc3oc(-c4ccc(S(C)(=O)=O)cc4F)nc3c2)CC1` [EXAMPLE-75, Isobutyl 4-{2-[2-fluoro-4-(methylsulfonyl)phenyl]benzo[d]oxazol-5-yl}piperidine-1-carboxylate] had an activation at 10 µM at human GPR119 (Table II) of 57.5%.
On human GPR119 (Table II), `CC(C)OC(=O)N1CCC(c2ccc3nc(-c4ccc(S(C)(=O)=O)cc4F)sc3c2)CC1` [EXAMPLE-76, Isopropyl 4-{2-[2-fluoro-4-(methylsulfonyl)phenyl]benzo[d]thiazol-6-yl}piperidine-1-carboxylate] yielded an activation at 10 µM of 74.9% and an EC50 of 50 to 250 nM.
On human GPR119 (Table II), `CC(C)OC(=O)N1CCC(c2ccc3oc(-c4ccc(C(F)(F)F)cc4)nc3c2)CC1` [EXAMPLE-77, Isopropyl 4-{2-[4-(trifluoromethyl)phenyl]benzo[d]oxazol-5-yl}piperidine-1-carboxylate] registered an activation at 10 µM of 80.4% and an EC50 of 50 to 250 nM.
Regarding `Cc1ccc(-c2nc3ccc(C4CCN(C(=O)OC(C)C)CC4)cc3o2)cc1` [EXAMPLE-78, Isopropyl 4-(2-p-tolylbenzo[d]oxazol-6-yl)piperidine-1-carboxylate], the activation at 10 µM at human GPR119 (Table II) is 59.4%.
As for `CS(=O)(=O)c1ccc(-c2nc3cc(C4=CCN(S(=O)(=O)CCCO)CC4)ccc3o2)c(F)c1` [EXAMPLE-79, 3-{4-[2-(2-fluoro-4-(methylsulfonyl)phenyl)benzo[d]oxazol-5-yl]-5,6-dihydropyridin-1(2H)-ylsulfonyl}propan-1-ol], the activation at 10 µM on human GPR119 (Table II) stood at 46.2%.
Turning to `CS(=O)(=O)c1ccc(-c2nc3cc(C4CCN(S(=O)(=O)CCCO)CC4)ccc3o2)c(F)c1` [EXAMPLE-80, 3-{4-[2-(2-fluoro-4-(methylsulfonyl)phenyl)benzo[d]oxazol-5-yl]piperidin-1-ylsulfonyl}propan-1-ol], at human GPR119 (Table II), the activation at 10 µM turned out to be 26.4%.
Regarding `CS(=O)(=O)c1ccc(-c2nc3cc(C4CCN(c5ncc(F)cn5)CC4)ccc3o2)c(F)c1` [EXAMPLE-81], the melting point lay in the range of 220 to 222 °C. At human GPR119 (Table II), this compound gave an activation at 10 µM of 43%.
For `CC(C)c1noc(C2CCN(c3ccc4oc(-c5ccc(S(C)(=O)=O)cc5F)nc4c3)CC2)n1` [EXAMPLE-83, 2-[2-fluoro-4-(methylsulfonyl)phenyl]-5-[4-(3-isopropyl-1,2,4-oxadiazol-5-yl)piperidin-1-yl]benzo[d]oxazole], the activation at 10 µM at human GPR119 (Table II) stood at 57.6%.
Compound `CC(C)(C)OC(=O)N1CCC(c2cnc3oc(-c4ccc(C(F)(F)F)cc4)nc3c2)CC1` [EXAMPLE-87, Tert-butyl 4-{2-[4-(trifluoromethyl)phenyl]oxazolo[5,4-b]pyridin-6-yl}piperidine-1-carboxylate] showed an activation at 10 µM on human GPR119 (Table II) of 47.3%.

The values are drawn from patent publication US9181214B2 (RHIZEN PHARMACEUTICALS SA, priority 2011, dated 2015).
